Measurements taken from US20200368312A1 (priority 2017, published 2020).
In brackets after ≈: the same amount, converted by molar mass. Where two headings read alike, the source gives them in different places.

How the values were obtained:
[1] = tested on: S. haemolyticus (CoNS); test: Broth microdilution MIC, S. haemolyticus (CoNS) (Table 7); assay type: cell-based; details: S. haemolyticus (CoNS) MMX 529 ATCC 29970
[2] = tested on: P. anaerobius; test: Broth microdilution MIC, P. anaerobius (Table 7); assay type: cell-based; details: P. anaerobius MMX 1208 ATCC 27337
[3] = tested on: P. acnes; test: Broth microdilution MIC, P. acnes (Table 7); assay type: cell-based
[4] = tested on: E. lenta; test: Broth microdilution MIC, E. lenta (Table 7); assay type: cell-based; details: E. lenta MMX 1287 ATCC 43055
[5] = tested on: Streptococci; test: Broth microdilution MIC, Streptococci (Example 11, Table 7); assay type: cell-based
[6] = tested on: S. epidermidis (CoNS); test: Broth microdilution MIC, S. epidermidis (CoNS) (Table 7); assay type: cell-based
[7] = tested on: C. perfringens; assay type: cell-based; details: C. perfringens MMX 8351 ATCC 13124
[8] = tested on: S. lugdenensis (CoNS); test: Broth microdilution MIC, S. lugdenensis (CoNS) (Table 7); assay type: cell-based; details: S. lugdenensis (CoNS) MMX 8724
[9] = tested on: Enterococci; assay type: cell-based
[10] = tested on: Clostridium difficile; test: Broth microdilution MIC, C. difficile, anaerobic, supplemented Brucella Broth (Example 11, Table 7); assay type: cell-based
[11] = Un-inoculated solubility control plates, drug precipitation in test media; assay type: physicochemical; details: top concentration tested (64 μg/mL) in MHBII with blood and supplemented Brucella broth
[12] = tested on: Staphylococcus aureus; test: microbe, parasite or virus in culture; assay type: cell-based
[13] = tested on: P. micros; test: Broth microdilution MIC, P. micros (Table 7); assay type: cell-based; details: P. micros MMX 3546
[14] = tested on: S. hominis (CoNS); test: Broth microdilution MIC, S. hominis (CoNS) (Table 7); assay type: cell-based; details: S. hominis (CoNS) MMX 667 ATCC 27844

CCCCCCCCCCNC1(C)CC(OC2C(Oc3c4cc5cc3Oc3ccc(cc3Cl)C(O)C3NC(=O)C(NC(=O)C5NC(=O)C(CC(N)=O)NC(=O)C(NC(=O)C(CC(C)C)NC)C(O)c5ccc(c(Cl)c5)O4)c4ccc(O)c(c4)-c4c(O)cc(O)cc4C(C(=O)O)NC3=O)OC(CO)C(O)C2O)OC(C)C1O (stereo not shown) [Compound 5, N-decyl vancomycin]
MIC [1]: 0.06 µg/mL (≈ 0.0377 µM) | MIC [2]: 0.03 µg/mL (≈ 0.0189 µM) | MIC ([3]; P. acnes MMX 7942 ATCC 6919): 0.06 µg/mL (≈ 0.0377 µM) | MIC ([3]; P. acnes MMX 7946 ATCC 11827): 0.06 µg/mL (≈ 0.0377 µM) | MIC [4]: 0.12 µg/mL (≈ 0.0755 µM) | MIC ([5]; S. agalactiae MMX 427 ATCC 13813): 0.03 µg/mL (≈ 0.0189 µM) | MIC ([5]; S. agalactiae MMX 4088): 0.015 µg/mL (≈ 0.00944 µM) | MIC ([5]; S. agalactiae MMX 4115, erm^R): 0.015 µg/mL (≈ 0.00944 µM) | MIC ([5]; S. anginosus (AGS) MMX 1201 ATCC 33397): 0.03 µg/mL (≈ 0.0189 µM) | MIC ([5]; S. constellatus (AGS) MMX 5677): 0.03 µg/mL (≈ 0.0189 µM) | MIC ([5]; S. dysgalactiae MMX 5121): 0.015 µg/mL (≈ 0.00944 µM) | MIC ([5]; S. dysgalactiae MMX 5123): 0.03 µg/mL (≈ 0.0189 µM) | MIC ([5]; S. dysgalactiae MMX 5124): 0.015 µg/mL (≈ 0.00944 µM) | MIC ([5]; S. mitis (MGS) MMX 1205 ATCC 49456): 0.03 µg/mL (≈ 0.0189 µM) | MIC ([5]; S. mitis (MGS) MMX 5798): 0.015 µg/mL (≈ 0.00944 µM) | MIC ([5]; S. oralis (MGS) MMX 5821): 0.03 µg/mL (≈ 0.0189 µM) | MIC ([5]; S. pneumoniae MMX 1195 ATCC 49619, PISP): 0.015 µg/mL (≈ 0.00944 µM) | MIC ([5]; S. pyogenes MMX 946, ermR): 0.015 µg/mL (≈ 0.00944 µM) | MIC ([6]; S. epidermidis (CoNS) MMX 762, MRSE): 0.12 µg/mL (≈ 0.0755 µM) | MIC ([6]; S. epidermidis (CoNS) MMX 5145, MRSE): 0.06 µg/mL (≈ 0.0377 µM) | MIC [7]: 0.06 µg/mL (≈ 0.0377 µM) | MIC [8]: 0.03 µg/mL (≈ 0.0189 µM) | MIC [9]: 0.06 µg/mL (≈ 0.0377 µM) | MIC ([9]; E. faecalis MMX 1086, VanA VRE): 0.06 µg/mL (≈ 0.0377 µM) | MIC ([9]; E. faecium MMX 173, VanB VRE): 0.12 µg/mL (≈ 0.0755 µM) | MIC ([9]; E. faecium MMX 851, VanA VRE): 2 µg/mL (≈ 1.26 µM) | MIC ([10]; C. difficile MMX 4381 ATCC 700057, toxinAB-negative): 0.06 µg/mL (≈ 0.0377 µM) | MIC ([10]; C. difficile MMX 4994 ATCC BAA-1805, ribotype 027): 0.06 µg/mL (≈ 0.0377 µM) | MIC ([10]; C. difficile MMX 5668 ATCC BAA-1870, NAP1/027): 0.5 µg/mL (≈ 0.315 µM) | drug precipitation [11]: Some precipitation | RV40 activity as compared to Comparator ([12]; MRSA strains (Table 5), […]): 9 × | MIC ([12]; S. aureus MMX 100 ATCC 29213, MSSA (quality control)): 0.06 µg/mL (≈ 0.0377 µM) | MIC ([12]; S. aureus MMX 1723, Mu50, VISA): 0.5 µg/mL (≈ 0.315 µM) | MIC ([12]; S. aureus MMX 2010, MRSA): 0.06 µg/mL (≈ 0.0377 µM) | MIC ([12]; S. aureus MMX 2011 ATCC BAA-1756, MRSA): 0.12 µg/mL (≈ 0.0755 µM) | MIC ([12]; S. aureus MMX 2124, VISA, DaptoNS): 0.25 µg/mL (≈ 0.157 µM) | MIC ([12]; S. aureus MMX 2490, MSSA): 0.06 µg/mL (≈ 0.0377 µM) | MIC ([12]; S. aureus MMX 3982, MRSA): 0.06 µg/mL (≈ 0.0377 µM) | MIC ([12]; S. aureus MMX 4658, VISA): 0.5 µg/mL (≈ 0.315 µM) | MIC ([12]; S. aureus MMX 4660, VISA): 0.12 µg/mL (≈ 0.0755 µM) | MIC ([12]; S. aureus MMX 4665, hVISA): 0.5 µg/mL (≈ 0.315 µM) | MIC ([12]; S. aureus MMX 4675 ATCC BAA-1556, MRSA): 0.06 µg/mL (≈ 0.0377 µM) | MIC ([12]; S. aureus MMX 5717 ATCC 33591, MRSA): 0.06 µg/mL (≈ 0.0377 µM) | MIC ([12]; S. aureus MMX 5985, MRSA): 0.06 µg/mL (≈ 0.0377 µM) | MIC ([12]; S. aureus MMX 5989, Mu3, hVISA): 0.06 µg/mL (≈ 0.0377 µM) | MIC ([12]; S. aureus MMX 5999, MRSA): 0.06 µg/mL (≈ 0.0377 µM) | MIC ([12]; S. aureus MMX 7899, MRSA): 0.06 µg/mL (≈ 0.0377 µM) | MIC ([12]; S. aureus MMX 7900, MRSA): 0.12 µg/mL (≈ 0.0755 µM) | MIC ([12]; S. aureus MMX 7901, MRSA): 0.06 µg/mL (≈ 0.0377 µM) | MIC ([12]; S. aureus MMX 7902, MRSA): 0.25 µg/mL (≈ 0.157 µM) | MIC ([12]; S. aureus MMX 7903, MRSA): 0.06 µg/mL (≈ 0.0377 µM) | MIC ([12]; S. aureus MMX 7907, MSSA): 0.06 µg/mL (≈ 0.0377 µM) | MIC ([12]; S. aureus MMX 7908, MSSA): 0.12 µg/mL (≈ 0.0755 µM) | MIC [13]: 0.12 µg/mL (≈ 0.0755 µM) | MIC [14]: 0.06 µg/mL (≈ 0.0377 µM)
